In PMC10892041, “Vanadium Complexes with Thioanilide Derivatives of Amino Acids: Inhibition of Human Phosphatases and Specificity in Various Cell Models of Metabolic Disturbances” (Pharmaceuticals, 2024):
Read-outs that look alike come from different tables or passages of the source.

Columns and labels:
[1] = molecular target: T1, PTP1B (Homo sapiens, UniProt P18031); assay: Inhibition of human recombinant tyrosine phosphatase PTP1B (DiFMUP fluorescence); type: biochemical; settings: for Inhibition of PTP1B, percentage of inhibition of the control: 1 µM, control solvent only, SD did not exceed 6%
T1 construct: purchased Sigma-Aldrich
T1 sequence (P18031 1-435): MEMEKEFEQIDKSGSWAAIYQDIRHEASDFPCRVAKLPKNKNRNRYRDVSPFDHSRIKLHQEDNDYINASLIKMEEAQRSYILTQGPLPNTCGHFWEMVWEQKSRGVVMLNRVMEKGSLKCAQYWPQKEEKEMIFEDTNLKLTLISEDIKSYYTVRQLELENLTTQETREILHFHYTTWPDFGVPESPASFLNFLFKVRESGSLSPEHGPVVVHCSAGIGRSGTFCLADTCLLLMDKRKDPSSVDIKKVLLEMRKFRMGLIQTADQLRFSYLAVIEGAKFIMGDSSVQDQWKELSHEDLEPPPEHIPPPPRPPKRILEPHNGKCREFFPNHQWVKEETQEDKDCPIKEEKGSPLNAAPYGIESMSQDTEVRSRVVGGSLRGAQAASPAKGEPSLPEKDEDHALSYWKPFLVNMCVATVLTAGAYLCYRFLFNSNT
Procedure: (§1) To determine the ability of the tested compounds for inhibition tyrosine phosphatases, human recombinant proteins were used (Sigma-Aldrich). The reactions were performed in black opaque 384-well microplates (PerkinElmer, Waltham, MA, USA). An equal volume of phosphatase solution in a reaction buffer (25 mM of 3-(N-morpholino)propanesulfonic acid (MOPS), 50 mM NaCl, 1 mM dithiothreitol (DTT), and 0.05% Tween-20 (pH 7.0)) was added to the solution of the tested compound on microplate. These solutions were dispensed using an automated injector. The following final concentrations of the tested phosphatases were used: PTP1B 50 ng/mL, SHP1 400 ng/mL, SHP2 50 ng/mL, LAR 5 ng/mL, and PTPRA 100 ng/mL. After 10 min, a solution of phosphate 6,8-difluoro-4-methyl (DiFMUP; Thermo Fisher Scientific) was added until its final concentration was 0.1 mM. Samples were incubated for 20 miN at 23 °C, and then the measurements of fluorescence intensity (excitation 355 and emission […]) were performed on a multifunctional plate reader POLARstar Omega (BMG Labtech, Ortenberg, Germany). Assays were performed in triplicate. For the screening assays, the final concentration of the tested compounds was 1 µM. The results were expressed as percent inhibition of untreated control (enzyme with vehicle only) for the screening tests. […] IC50 were calculated using GraphPad Prism version 6.0 software (GraphPad Software, Boston, MA, USA).

[2] = molecular target: T2, LAR (Homo sapiens, UniProt P10586); assay: Inhibition of human recombinant tyrosine phosphatase LAR (DiFMUP fluorescence); type: biochemical; settings: for Inhibition of LAR, percentage of inhibition of the control: 1 µM, control solvent only, SD did not exceed 6%
T2 sequence (P10586 1352-1607 limits assumed): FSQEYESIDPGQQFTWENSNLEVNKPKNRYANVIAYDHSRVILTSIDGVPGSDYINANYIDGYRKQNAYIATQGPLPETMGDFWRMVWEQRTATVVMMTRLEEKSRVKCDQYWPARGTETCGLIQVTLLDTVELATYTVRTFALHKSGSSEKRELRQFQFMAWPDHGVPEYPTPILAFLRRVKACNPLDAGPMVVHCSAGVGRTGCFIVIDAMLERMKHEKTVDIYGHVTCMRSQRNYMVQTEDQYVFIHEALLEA
Procedure: as §1

[3] = molecular target: T3, SHP1 (Homo sapiens, UniProt P29350); assay: Inhibition of human recombinant tyrosine phosphatase SHP1 (DiFMUP fluorescence); type: biochemical; settings: for Inhibition of SHP1, percentage of inhibition of the control: 1 µM, control solvent only, SD did not exceed 6%
T3 construct: purchased Sigma-Aldrich
T3 sequence (P29350 whole entry): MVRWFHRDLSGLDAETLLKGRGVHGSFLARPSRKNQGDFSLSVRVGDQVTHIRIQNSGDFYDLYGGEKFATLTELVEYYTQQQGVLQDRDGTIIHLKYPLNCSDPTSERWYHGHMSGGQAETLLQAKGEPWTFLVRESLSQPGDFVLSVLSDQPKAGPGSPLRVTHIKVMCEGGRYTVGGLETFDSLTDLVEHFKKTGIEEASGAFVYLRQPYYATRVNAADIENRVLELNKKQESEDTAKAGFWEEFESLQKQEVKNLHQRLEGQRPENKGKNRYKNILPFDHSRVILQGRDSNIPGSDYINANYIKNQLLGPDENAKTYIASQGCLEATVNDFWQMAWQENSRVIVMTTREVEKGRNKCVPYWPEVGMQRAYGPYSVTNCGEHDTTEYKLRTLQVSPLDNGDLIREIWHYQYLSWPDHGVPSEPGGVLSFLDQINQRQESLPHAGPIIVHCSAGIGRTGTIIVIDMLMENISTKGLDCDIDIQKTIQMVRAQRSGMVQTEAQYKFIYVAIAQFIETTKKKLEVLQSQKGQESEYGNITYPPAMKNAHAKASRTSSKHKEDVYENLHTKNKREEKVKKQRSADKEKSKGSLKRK
Procedure: as §1

[4] = molecular target: T4, SHP2 (Homo sapiens, UniProt Q06124); assay: Inhibition of human recombinant tyrosine phosphatase SHP2 (DiFMUP fluorescence); type: biochemical; settings: for Inhibition of SHP2, percentage of inhibition of the control: 1 µM, control solvent only, SD did not exceed 6%
T4 construct: purchased Sigma-Aldrich
T4 sequence (Q06124 1-593): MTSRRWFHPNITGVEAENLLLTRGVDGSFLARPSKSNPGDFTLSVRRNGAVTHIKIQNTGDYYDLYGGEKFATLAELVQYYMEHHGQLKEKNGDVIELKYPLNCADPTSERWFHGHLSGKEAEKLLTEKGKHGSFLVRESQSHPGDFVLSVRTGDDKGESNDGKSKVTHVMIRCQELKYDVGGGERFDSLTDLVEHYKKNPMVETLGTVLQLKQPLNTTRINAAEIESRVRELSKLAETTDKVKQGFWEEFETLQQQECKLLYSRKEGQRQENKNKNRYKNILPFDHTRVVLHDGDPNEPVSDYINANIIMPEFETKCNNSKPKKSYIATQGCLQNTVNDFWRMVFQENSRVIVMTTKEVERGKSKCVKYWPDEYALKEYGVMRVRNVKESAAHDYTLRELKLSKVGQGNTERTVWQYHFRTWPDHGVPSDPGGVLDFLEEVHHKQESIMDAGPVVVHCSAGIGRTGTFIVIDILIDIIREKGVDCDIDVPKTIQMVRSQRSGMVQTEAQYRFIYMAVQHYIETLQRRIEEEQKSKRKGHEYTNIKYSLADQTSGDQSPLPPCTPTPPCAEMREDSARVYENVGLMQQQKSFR
Procedure: as §1

[5] = system: adipocytes 3T3-L1; assay: Scintillation proximity assay, transport of [14C]-deoxy-D-glucose into adipocytes 3T3-L1; type: cell-based, mouse; settings: 50 µM
Procedure: Adipocytes 3T3-L1 cell line (ATCC CRL-11605) derived from fibroblasts from mouse embryo tissue were cultured according to standard protocol in DMEM medium supplemented with 10% bovine calf serum, 100 IU/mL penicillin, and […] streptomycin at 37 °C in 5% CO2. Cells were seeded in 96-well poly-D-lysine-coated plates and cultured to reach confluency.
(§2) Scintillation proximity assay (SPA) is a method to measure the real-time accumulation of radiolabeled substrates by adherent cells with no filtration needed. Radioactivity concentrated closer to the scintillator embedded in the plastic bottom of each well provides a stronger signal than the radiolabeled substrate in the culture medium. Uptake of radiolabeled 2-deoxy-D-[U-14C]-glucose was conducted based on previous descriptions.
Adipocytes were washed and the medium was changed to the basal medium. After 24 h incubation, the tested complexes were added. After 2 h incubation at 37 °C in 5% CO2, the medium was changed to DMEM medium without glucose, with 0.1% BSA free from fatty acid, […] L-glutamine, and […] pyruvate. The tested complexes were added again, and further incubation for 4 h was conducted.
(§3) For cells proceeded as above, 2-deoxy-D-[U-14C]-glucose (250–350 mCi/mmol, NEC720A, PerkinElmer) solution in KRB with a total activity of 0.03 mCi was added to each well. […] Non-specific radioactivity was subtracted from each result (cpm). Two independent experiments with triplicates were conducted.

[6] = system: myocytes C2C12; assay: Scintillation proximity assay, transport of [14C]-deoxy-D-glucose into myocytes C2C12; type: cell-based, mouse; settings: for Transport of [14C]-deoxy-D-glucose into C2C12 myocytes, % of the control: 50 µM, control solvent only
Procedure: (§4) The myocyte C2C12 cell line (ATCC CRL-1772), a subclone of myoblasts from mouse muscles, was cultured according to standard protocol in DMEM supplemented with 10% fetal calf serum, 100 IU/ml penicillin, and […] streptomycin at 37 °C in 5% CO2. Cells were pleated on a 96-well microplate and after reach confluence were differentiated in medium with 2% horse serum. Differentiation medium was changed every 72 h.
as §2
After 24 h incubation, the tested complexes were added. After 2 h incubation at 37 °C in 5% CO2, the medium was changed to low-glucose medium (1000 mg/L), and the tested complexes were added again, with further incubation for 4 h being conducted.
as §3

[7] = system: myocytes C2C12; assay: Glucose consumption (utilization) by myocytes C2C12; type: cell-based, mouse; settings: 50 µM (highest tested concentration); 24 h
Procedure: as §4
Differentiated myocytes C2C12 were used after 8 days of differentiation. The culture medium was changed for medium with 0.2% bovine serum albumin, 100 IU/mL penicillin, and 100 µg/mL streptomycin, and after 2 hours of incubation, the medium was changed to fresh medium containing the tested compounds. […]
Glucose concentration was determined based on enzymatic reaction with glucose oxidase and fluorometrically detection reaction end product using an AmplexRed Glucose/Glucose Oxidase Kit (Thermo Fisher Scientific) according to the manufacturer’s protocol. […] Fluorescence signal was measured at excitation of 530 nm and emission of 580 nm using a multimodal microplate reader POLARStar Omega (BMG Labtech), and glucose concentration in samples was calculated in MARS Data Analysis Software version 3.02.R2 (BMG Labtech) based on glucose standards. […] The final results were expressed as the percent of controls containing cells and solvent only.

[8] = molecular target: T5, CDC25A (Homo sapiens, UniProt P30304); assay: Inhibition of human recombinant non-tyrosine phosphatase CDC25A (3-O-methylfluorescein phosphate); type: biochemical
T5 construct: purchased Sigma-Aldrich
T5 sequence (P30304 1-524): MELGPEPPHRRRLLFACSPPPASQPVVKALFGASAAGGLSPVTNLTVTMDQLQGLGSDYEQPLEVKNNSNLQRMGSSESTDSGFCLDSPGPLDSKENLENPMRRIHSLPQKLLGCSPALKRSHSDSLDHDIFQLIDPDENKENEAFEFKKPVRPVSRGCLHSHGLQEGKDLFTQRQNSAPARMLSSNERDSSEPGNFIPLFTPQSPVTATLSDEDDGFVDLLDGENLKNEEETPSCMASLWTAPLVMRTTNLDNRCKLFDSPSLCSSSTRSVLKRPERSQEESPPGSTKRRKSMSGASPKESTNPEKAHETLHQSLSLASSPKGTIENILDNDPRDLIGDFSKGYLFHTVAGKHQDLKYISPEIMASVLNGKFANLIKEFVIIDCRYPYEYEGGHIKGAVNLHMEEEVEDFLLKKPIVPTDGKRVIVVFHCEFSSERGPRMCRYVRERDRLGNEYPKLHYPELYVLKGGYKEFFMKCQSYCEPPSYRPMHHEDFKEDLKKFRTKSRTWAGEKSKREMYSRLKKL
Procedure: (§5) For the inhibition assay of non-tyrosine phosphatases, human recombinant proteins were used (Sigma-Aldrich). The reactions were performed in black opaque 384-well microplates (PerkinElmer). To the solution of the tested complexes, an equal volume of a test solution of phosphatase was added. CDC25A were diluted in reaction buffer to the final concentration of 400 ng/mL as for tyrosine phosphatases (described in the section above), and PPA2 (final 0.5 U/mL) was diluted in 50 mM Tris-HCl, 0.05% Tween-20, and 125 µg/mL protease-free bovine serum albumin (pH 7.0). These solutions were dispensed using an automated injector. After 10 min, a solution of phosphate 6,8-difluoro-4-methyl (DiFMUP; Thermo Fisher Scientific) was added for the PPA2 sample until the final concentration 0.1 mM. For CDC25A samples, 3-O-methylfluorescein phosphate for the final concentration of 0.2 mM was added. Samples were incubated for 180 min at 23 °C, and then the measurements of fluorescence intensity (excitation 355 and emission 560 nm) were performed on a multifunctional plate reader POLARstar Omega (BMG Labtech). Assays were performed in triplicate. The results were expressed as percent of inhibition of untreated control (enzyme with vehicle solvent only).

[9] = molecular target: PP2A (Homo sapiens, UniProt P67775); assay: Inhibition of human recombinant non-tyrosine phosphatase PP2A (DiFMUP); type: biochemical
PP2A, sequence (P67775 whole entry): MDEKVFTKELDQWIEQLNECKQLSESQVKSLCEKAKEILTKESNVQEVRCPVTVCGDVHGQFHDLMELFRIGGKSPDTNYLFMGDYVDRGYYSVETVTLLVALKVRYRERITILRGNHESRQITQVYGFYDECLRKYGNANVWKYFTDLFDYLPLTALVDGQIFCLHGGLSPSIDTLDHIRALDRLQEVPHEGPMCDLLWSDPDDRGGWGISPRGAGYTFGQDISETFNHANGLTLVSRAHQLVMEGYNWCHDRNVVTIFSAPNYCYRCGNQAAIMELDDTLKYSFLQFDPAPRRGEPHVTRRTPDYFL
Procedure: as §5

[10] = system: myocytes C2C12; assay: Viability of myocytes C2C12 after 24 h incubation (resazurin-based reagent); settings: 50 µM
Procedure: Simultaneously with glucose consumption tests, the viability of myocytes C2C12 was examined due to their prolonged 24 h incubation with vanadium complexes.
Prolonged incubation of the cells with vanadium complexes, as was the case during the study of the effect on glucose consumption, more closely corresponds to the actual conditions of clinical use, also allowing for the identification of possible cytotoxic effects. […] A Resazurin-based reagent is reduced proportionally to the metabolic activity of cells as a result of the transference of electrons from NADPH+H^+, the amount of which strictly depends on glucose metabolism.

Inhibition of PTP1B, percentage of inhibition of the control [1] [%] | Inhibition of LAR, percentage of inhibition of the control [2] [%] | Inhibition of SHP1, percentage of inhibition of the control [3] [%] | Inhibition of SHP2, percentage of inhibition of the control [4] [%] | Log IC50 ± SD PTP1B ([1]; logarithm of IC50) | IC50 ([1]; read-out: IC50 PTP1B) [nM] | IC50 ([1]; read-out: IC50 for PTP1B) [nM] | IC50 [2] [nM] | IC50 [3] [nM] | Log IC50 ± SD SHP1 ([3]; logarithm of IC50) | IC50 [4] [nM] | Inhibition of CDC25A, percentage inhibition of control ± SD ([8]; 1 µM) [%] | Inhibition of CDC25A, percentage inhibition of control ± SD ([8]; 10 µM) [%] | Inhibition of PP2A, percentage inhibition of control ± SD ([9]; 1 µM) [%] | Inhibition of PP2A, percentage inhibition of control ± SD ([9]; 10 µM) [%] | Compound | Transport of [14C]-deoxy-D-glucose into 3T3-L1 adipocytes, % of control [5] | Transport of [14C]-deoxy-D-glucose into C2C12 myocytes, % of the control [6] | Transport of [14C]-deoxy-D-glucose into C2C12 myocytes ([6]; 10 and 1 µM) | Glucose consumption by myocytes C2C12, % of the control [7] | Cell viability of myocytes C2C12, % of the control [10] [%]
60 | 66 | 67 | 74 |  |  |  |  |  |  |  |  |  |  |  | O.[O]=[V]1[O]C(c2ccccc2O)=NN=Cc2cc(Br)ccc2[O]1.c1cnc2c(c1)ccc1cccnc12 [VC013, [VO(L6)(phen)]⋅H2O] | statistically significant activity |  |  |  | 
9 | 8 | 44 | 48 |  |  |  |  |  |  |  |  |  |  |  | O.O=C(NN=Cc1cc(Br)ccc1[O][V]1[O]C(c2ccccc2)=NN=Cc2cc(Br)ccc2[O]1)c1ccccc1 [VC032, [V(L8)(HL8)]⋅H2O] |  | 266 ± 36 % of control | significant effects | No statistically significant effect | 
79 | 71 | 82 | 87 | −6.97 ± 0.01 | 107 | 110 | 76 | 26 | −7.59 ± 0.04 | 13 | 55 ± 3 | 68 ± 3 | 44 ± 1 | 54 ± 9 | CC(CC(=S)Nc1ccccc1)=NC(Cc1ccccc1)C(=O)[O][V](=[O])([Cl])[Cl] (stereo not shown) [VC059, [VOCl2(L2)]·0.5Et2O·1.5HCl] |  |  |  |  | 86 ± 6
79 | 69 | 84 | 88 |  |  |  |  |  |  |  |  |  |  |  | CC(CC(=S)Nc1ccccc1)=NC(CC(C)C)C(=O)[O][V](=[O])([Cl])[Cl] (stereo not shown) [VC070, [VOCl2(L3)]·0.5Et2O·3HCl] | 159 % of control | 158 ± 10 % of control |  |  | 
